# Data published in ChEMBL document CHEMBL4421722, “Inhibitors of protein prenyltransferases” (2013).
# Species on record: Rattus norvegicus
# Experiment: Inhibition of rat recombinant geranylgeranyltransferase type I expressed in Escherichia coli assessed as residual enzyme activity for geranylgeranylation of K-Ras4B at 50 uM incubated for 30 mins in presence of [3H]GGPP by scintillation counting assay relative to control
row,SMILES,Activity
1,Cc1ccc(S(=O)(=O)N2[C@@H](c3ccc(C(C)(C)C)cc3)C(C(=O)O)=CC[C@H]2c2cccc(F)c2)cc1,77.2%
2,COc1ccc([C@@H]2C[C@@H](SCc3ccccc3)[C@H](C(=O)O)CN2S(=O)(=O)c2ccccc2C)cc1,33.9%
3,CCOc1ccc([C@@H]2CC=C(C(=O)O)[C@H](c3cccc(C)c3)N2S(=O)(=O)c2ccc(C)cc2)cc1,65.3%
4,Cc1ccc([C@@H]2C[C@@H](SCCC(C)C)[C@H](C(=O)O)CN2S(=O)(=O)c2ccc(Cl)cc2)cc1,77.6%
5,COc1ccc([C@@H]2CC=C(C(=O)O)[C@H](c3ccc(C(C)(C)C)cc3)N2S(=O)(=O)c2ccccc2)cc1,82.2%
6,C=CCS[C@@H]1C[C@@H](c2ccc(CC)cc2)N(S(=O)(=O)c2ccc(C)cc2)C[C@H]1C(=O)O,89.6%
7,CCCCCS[C@@H]1C[C@@H](c2ccc(OC)cc2)N(S(=O)(=O)c2ccc(C)cc2)C[C@H]1C(=O)O,86.7%
8,Cc1ccc([C@@H]2CC=C(C(=O)O)[C@H](c3cccc(Br)c3)N2S(=O)(=O)c2ccccc2C)cc1,50%
9,CC(=O)C1=CC[C@@H](c2ccc(C)cc2)N(S(=O)(=O)c2ccccc2[N+](=O)[O-])C1,110%
10,Cc1ccc([C@@H]2CC=C(C(=O)O)[C@H](c3cccc(C)c3)N2S(=O)(=O)c2ccccc2C)cc1,53.4%
11,COc1ccc([C@@H]2CC=C(C(=O)O)[C@H](c3ccc(Cl)cc3)N2S(=O)(=O)c2ccccc2)cc1,86.8%
12,CCc1ccc([C@@H]2C=CCCN2S(=O)(=O)c2ccc(C)cc2)cc1,99.5%
13,Cc1ccc(S(=O)(=O)N2[C@@H](c3ccc(F)cc3)C(C(=O)O)=CC[C@H]2c2cccc(F)c2)cc1,63.4%
14,Cc1ccc(S[C@@H]2C[C@@H](c3cccc(Br)c3)N(S(=O)(=O)c3ccc(C)cc3)C[C@H]2C(=O)O)cc1,94%
15,CCCCS[C@@H]1C[C@@H](c2ccc(C)cc2)N(S(C)(=O)=O)C[C@H]1C(=O)O,104%
16,CCCS[C@@H]1C[C@@H](c2ccc(C)cc2)N(S(=O)(=O)c2ccccc2)C[C@H]1C(=O)O,100%
17,CCOc1ccc([C@@H]2CC=C(C(=O)O)[C@H](c3ccc(F)cc3)N2S(=O)(=O)c2ccc(C)cc2)cc1,66.2%
18,CCCCS[C@@H]1C[C@@H](c2ccc3c(c2)OCO3)N(S(=O)(=O)c2ccc(C)cc2)C[C@H]1C(=O)O,80.4%
19,Cc1ccc(S(=O)(=O)N2[C@@H](c3ccc(C(C)(C)C)cc3)C(C(=O)O)=CC[C@H]2c2ccccc2)cc1,75.2%
20,Cc1ccc(S(=O)(=O)N2[C@@H](c3ccc(C(C)(C)C)cc3)C(C(=O)O)=CC[C@H]2c2ccc(Cl)c(Cl)c2)cc1,74.3%
21,CCS[C@@H]1C[C@@H](c2ccc(OC)cc2)N(S(=O)(=O)c2ccccc2)C[C@H]1C(=O)O,89.9%
22,COc1ccc([C@@H]2CC=C(C(=O)O)[C@H](c3cccc(F)c3)N2S(=O)(=O)c2ccc(C)cc2)cc1OC,88.9%
23,Cc1ccccc1S(=O)(=O)N1C[C@@H](C(=O)O)[C@H](SCC(C)C)C[C@H]1c1ccc(Cl)cc1,76.1%
24,Cc1ccc([C@H]2C(C(=O)O)=CC[C@@H](c3ccc(Cl)cc3)N2S(=O)(=O)c2ccc(C)cc2)cc1,60.7%
25,CCCCCS[C@@H]1C[C@@H](c2ccc(C)cc2)N(S(=O)(=O)c2ccc(Cl)cc2)C[C@H]1C(=O)O,75.8%

row,SMILES,Activity
1,Cc1ccc([C@@H]2C[C@@H](SCC(C)C)[C@H](C(=O)O)CN2S(=O)(=O)c2ccccc2C)cc1,78.3%
2,Cc1ccc(S(=O)(=O)N2[C@@H](c3cccc(F)c3)C(C(=O)O)=CC[C@H]2c2ccccc2F)cc1,75%
3,Cc1ccc([C@@H]2C[C@@H](SCCc3ccccc3)[C@H](C(=O)O)CN2S(=O)(=O)c2ccccc2)cc1,55.5%
4,CCCCCS[C@@H]1C[C@@H](c2cccc(Cl)c2)N(S(=O)(=O)c2ccc(C)cc2)C[C@H]1C(=O)O,84.6%
5,COc1ccc([C@@H]2C[C@@H](SCCc3ccccc3)[C@H](C(=O)O)CN2S(=O)(=O)c2ccc(C)cc2)cc1OC,44.1%
6,Cc1ccc(S(=O)(=O)N2[C@@H](c3cccc(Cl)c3)C(C(=O)O)=CC[C@H]2c2cccs2)cc1,79.5%
7,CCS[C@@H]1C[C@@H](c2ccc(OC)cc2)N(S(=O)(=O)c2ccc(C)cc2)C[C@H]1C(=O)O,96.3%
8,CCOc1ccc([C@@H]2C[C@@H](SCc3ccccc3)[C@H](C(=O)O)CN2S(=O)(=O)c2ccc(C)cc2)cc1,50.9%
9,CC(=O)C1=CC[C@@H](c2ccccc2F)N(S(=O)(=O)c2ccc(C)cc2)C1,80.8%
10,Cc1ccc(S[C@@H]2C[C@@H](c3ccc(Cl)cc3)N(S(=O)(=O)c3ccccc3C)C[C@H]2C(=O)O)cc1,74.8%
11,COc1ccc([C@@H]2CC=C(C(C)=O)CN2S(=O)(=O)c2ccccc2)cc1,110%
12,Cc1ccc(S(=O)(=O)N2C[C@@H](C(=O)O)[C@H](Sc3ccc(Cl)cc3)C[C@H]2c2ccccc2F)cc1,88.8%
13,COc1ccc([C@@H]2C[C@@H](Sc3ccc(C)cc3)[C@H](C(=O)O)CN2S(=O)(=O)c2ccccc2)cc1,84.8%
14,C=CCS[C@@H]1C[C@@H](c2cc(OC)c(OC)c(OC)c2)N(S(=O)(=O)c2ccc(C)cc2)C[C@H]1C(=O)O,109%
15,Cc1ccc(S(=O)(=O)N2[C@@H](c3ccc(Cl)cc3)C(C(=O)O)=CC[C@H]2c2ccc(C#N)cc2)cc1,73.1%
16,CCc1ccc([C@@H]2CC=C(C(=O)O)[C@H](c3ccc(C)cc3)N2S(=O)(=O)c2ccc(C)cc2)cc1,87%
17,COc1ccc([C@@H]2CC=C(C(=O)O)[C@H](c3ccc(Br)cc3)N2S(=O)(=O)c2ccccc2)cc1,82.3%
18,Cc1ccc(S(=O)(=O)N2[C@@H](c3cccc(Cl)c3)C(C(=O)O)=CC[C@H]2c2ccc(Cl)cc2)cc1,59.2%
19,Cc1ccc([C@@H]2C[C@@H](SC3CCCC3)[C@H](C(=O)O)CN2S(=O)(=O)c2ccc(Cl)cc2)cc1,93.2%
20,Cc1ccc([C@H]2C(C(=O)O)=CC[C@@H](c3cccc(Br)c3)N2S(=O)(=O)c2ccc(C)cc2)cc1,67.4%
21,Cc1ccc([C@@H]2CC=C(C(=O)O)[C@H](c3cccc(C)c3)N2S(C)(=O)=O)cc1,56%
22,CCCCCCS[C@@H]1C[C@@H](c2cccc(OC)c2)N(S(=O)(=O)c2ccc(C)cc2)C[C@H]1C(=O)O,80.5%
23,COc1ccc([C@@H]2C[C@@H](SCC(C)C)[C@H](C(=O)O)CN2S(=O)(=O)c2ccc(C)cc2)cc1,79.3%
24,Cc1ccc(S(=O)(=O)N2C[C@@H](C(=O)O)[C@H](SCc3ccc(Cl)cc3)C[C@H]2c2ccc3c(c2)OCO3)cc1,37.4%
25,COc1ccc([C@@H]2CC=C(C(C)=O)CN2S(=O)(=O)c2ccccc2C)cc1,77.3%

# More lines, now with the values ahead:
row,Activity,SMILES
1,66.3%,CCCCCCS[C@@H]1C[C@@H](c2ccc(Cl)cc2)N(S(=O)(=O)c2ccccc2C)C[C@H]1C(=O)O
2,57.6%,Cc1ccc(S(=O)(=O)N2[C@@H](c3cccc(Cl)c3)C(C(=O)O)=CC[C@H]2c2cccc(C)c2)cc1
3,45.5%,Cc1cccc([C@H]2C(C(=O)O)=CC[C@@H](c3ccc(Cl)cc3)N2S(C)(=O)=O)c1
4,91.4%,COc1ccc([C@@H]2CC=C(C(=O)O)[C@H](c3ccc(Cl)cc3)N2S(=O)(=O)c2ccc(C)cc2)cc1
5,84.9%,CCCS[C@@H]1C[C@@H](c2ccc(OCC)cc2)N(S(=O)(=O)c2ccc(C)cc2)C[C@H]1C(=O)O
6,73.5%,CCCCS[C@@H]1C[C@@H](c2cc(OC)c(OC)c(OC)c2)N(S(=O)(=O)c2ccc(C)cc2)C[C@H]1C(=O)O
7,95.4%,C=CCS[C@@H]1C[C@@H](c2ccc(OC)cc2)N(S(=O)(=O)c2ccc(Cl)cc2)C[C@H]1C(=O)O
8,98.9%,C=CCS[C@@H]1C[C@@H](c2ccccc2)N(S(=O)(=O)c2ccc(C)cc2)C[C@H]1C(=O)O
9,57.1%,Cc1ccc(S(=O)(=O)N2[C@@H](c3cccc(C)c3)C(C(=O)O)=CC[C@H]2c2ccc(C(C)C)cc2)cc1
10,77.3%,CCCCCCS[C@@H]1C[C@@H](c2cccc(Cl)c2)N(S(=O)(=O)c2ccc(C)cc2)C[C@H]1C(=O)O
11,83.7%,COc1cc([C@@H]2C[C@@H](Sc3ccccc3)[C@H](C(=O)O)CN2S(=O)(=O)c2ccc(C)cc2)cc(OC)c1OC
12,44.1%,COc1ccc([C@@H]2C[C@@H](SCc3ccc(C(C)(C)C)cc3)[C@H](C(=O)O)CN2S(=O)(=O)c2ccc(C)cc2)cc1
13,73.6%,Cc1ccc([C@H]2C(C(=O)O)=CC[C@@H](c3ccc(C)cc3)N2S(=O)(=O)c2ccc(C)cc2)cc1
14,60.2%,Cc1ccc(S(=O)(=O)N2[C@@H](c3ccc(F)cc3)C(C(=O)O)=CC[C@H]2c2cccc(Cl)c2)cc1
15,63.7%,Cc1ccc([C@H]2C(C(=O)O)=CC[C@@H](c3ccc(C(C)C)cc3)N2S(=O)(=O)c2ccc(C)cc2)cc1
16,95.9%,CCOc1ccc([C@@H]2C[C@@H](SCCC(C)C)[C@H](C(=O)O)CN2S(=O)(=O)c2ccc(C)cc2)cc1
17,90.9%,Cc1ccc(S(=O)(=O)N2[C@@H](c3cccc(F)c3)C(C(=O)O)=CC[C@H]2c2ccc3c(c2)OCO3)cc1
18,59.3%,Cc1ccc(S(=O)(=O)N2C[C@@H](C(=O)O)[C@H](SCc3ccc(C(C)(C)C)cc3)C[C@H]2c2ccc3c(c2)OCO3)cc1
19,87.7%,Cc1ccc(S(=O)(=O)N2[C@@H](c3ccc(C(C)(C)C)cc3)C(C(=O)O)=CC[C@H]2c2ccc(C#N)cc2)cc1
20,72.6%,COc1ccc([C@@H]2CC=C(C(=O)O)[C@H](c3ccc(Cl)cc3)N2S(=O)(=O)c2ccc(Cl)cc2)cc1
21,46.3%,C=CCS[C@@H]1C[C@@H](c2cccc(Cl)c2)N(S(=O)(=O)c2ccc(C)cc2)C[C@H]1C(=O)O
22,86.6%,CS(=O)(=O)N1[C@@H](c2cccc(F)c2)C(C(=O)O)=CC[C@H]1c1ccccc1
23,90.4%,CCS[C@@H]1C[C@@H](c2cc(OC)c(OC)c(OC)c2)N(S(=O)(=O)c2ccc(C)cc2)C[C@H]1C(=O)O
24,56.1%,COc1ccc([C@@H]2CC=C(C(=O)O)[C@H](c3cccc(Cl)c3)N2S(=O)(=O)c2ccccc2)cc1
25,58.4%,Cc1ccc(S(=O)(=O)N2C[C@@H](C(=O)O)[C@H](SCCC(C)C)C[C@H]2c2ccccc2F)cc1
26,67.4%,Cc1ccc([C@@H]2CC=C(C(=O)O)[C@H](c3ccc(Cl)cc3)N2S(=O)(=O)c2ccc(C)cc2)cc1
27,101%,COc1ccc(S[C@@H]2C[C@@H](c3cccc(OC)c3)N(S(=O)(=O)c3ccc(C)cc3)C[C@H]2C(=O)O)cc1
